Test results as given in patent publication US11873295B2, “Allosteric chromenone inhibitors of phosphoinositide 3-kinase (PI3K) for the treatment of disease” (Petra Pharma Corporation, priority 2021, dated 2024).

Assays:
[1] = tested on: PI3K-α (PIK3CA) in MDA-MB-453 cells; experiment: PI3K-alpha kinase (PIK3CA) activity in vitro cell based assay, MDA-MB-453 cells, AlphaLisa SureFire; conditions: 0% FBS, 3 hours treatment, relative IC50
Procedure: PI3K-Alpha Kinase (PIK3CA) Activity In Vitro Cell Based Assay and Determining IC50 Values for Inhibitors
The MDA-MB-453 (ATCC-HTB-131) cell line was obtained from the American Type Culture Collection (Manassas, VA). Cells were maintained in Dulbecco's Modified Eagle Media (DMEM, Gibco 11965-092) supplemented with 10% Fetal Bovine Serum, heat inactivated (FBS HI, Gibco 10082-147), 1× non-essential amino acids (NEAA, Gibco 11140-050), and 1 mM sodium pyruvate (Gibco 11360-070). Cultures were maintained in a humidified incubator at 37° C. under 5% CO2/95% air.
For compound testing in 0% FBS, MDA-MB-453 cells were seeded at a density of 1.5×10^4 cells per well in white 384-well plates in 20 μl of Minimum Essential Media (MEM) assay media with 1×NEAA, 1 mM sodium pyruvate, and 1 μg/mL human insulin (Sigma I9278). Compounds dissolved in 10 mM stock solutions in DMSO were serially diluted 1:3 in DMSO to generate a 10-point dilution series and plated using an acoustic liquid handler system (Echo 550 Series Liquid Handler, Labcyte). A 5× intermediate compound dilution plate in MEM with 1×NEAA and 1 mM sodium pyruvate (150 μM starting compound concentration in 1.5% DMSO) was then prepared. Five μl of the intermediate serially diluted compounds were added to the cell plate to final concentrations ranging from […] in 0.3% DMSO. 0.3% DMSO alone was used to establish the maximum (MAX) signal and GDC-0032 at a final concentration of 1 μM was used as a reference compound for the minimum (MIN) signal. After 3 hours treatment, the medium was removed, and the cells lysed in 10 μL of 1× SureFire Lysis buffer with shaking for 10 minutes at room temperature. The Acceptor Mix (Reaction Buffer 1+Reaction Buffer 2+Activation Buffer+SureFire Ultra Acceptor Beads) was prepared by diluting Activation buffer 25-fold in combined Reaction Buffer 1 and Reaction Buffer 2. The Acceptor beads were diluted 50-fold in the combined Reaction Buffers. Five μL of Acceptor Mix was added to each well, the plate was sealed and covered with foil and incubated for 1 hour at room temperature. The Donor Mix (dilution buffer+SureFire Ultra Donor Beads) was prepared by diluting Donor Beads 50-fold in dilution buffer. Five μL of the Donor Mix was added to each well and the plate sealed and covered with foil and incubated for 1 hour at room temperature in the dark. The plates were read on a Neo2 plate reader instrument from Biotek using standard AlphaLisa settings. Compounds were tested in duplicate and the average % inhibition at each compound concentration was used to generate a single dose response curve. The data were processed using the Genedata-Screener tool. Relative IC50 values were determined using luminescence units by calculating percent inhibition with respect to the in-plate “MIN” (GDC-0032 reference control) and “MAX” (DMSO) controls. The data was analyzed using a 4-parameter nonlinear logistic equation (four-parameter logistic concentration-response curve): Y=bottom+[(top−bottom)/1+(X/IC50)slope] where Y=% inhibition, X=concentration of inhibitor, bottom=minimum value of y attained by curve-fit, top=maximum value of y attained by curve-fit and slope=steepness of curve at the IC50. % Inhibition=[(signal at X−median Min)/(median Max−median Min)]×100 IC50: concentration of compound that reduces a given response (ligand binding, enzyme response) by 50%. Relative IC50: concentration giving half the compound's maximum response.
For IC50 values shown in Table B, “A” means IC50<50 nM; “B” means IC50 ranging between 50 nM and 100 nM; “C” means IC50 ranging between 100 nM and 500 nM; “D” means IC50>500 nM.

[2] = molecular target: T1, human full length PIK3KA H1047R mutant (p110α/p85α complex) (Homo sapiens, UniProt P42336, H1047R); experiment: PI3K-alpha kinase (PIK3CA) biochemical activity, H1047R mutant, ADP-Glo; conditions: PI3K-α (PIK3CA) biochemical, H1047R mutant, Soy PI lipid substrate
T1 construct: Recombinant, catalytically active human full length PIK3KA Wild-type and H1047R mutant were purchased as 1:1 complex; 6xHis (N); purchased EMD Millipore Sigma 14-792M
T1 sequence (P42336 whole entry H1047R): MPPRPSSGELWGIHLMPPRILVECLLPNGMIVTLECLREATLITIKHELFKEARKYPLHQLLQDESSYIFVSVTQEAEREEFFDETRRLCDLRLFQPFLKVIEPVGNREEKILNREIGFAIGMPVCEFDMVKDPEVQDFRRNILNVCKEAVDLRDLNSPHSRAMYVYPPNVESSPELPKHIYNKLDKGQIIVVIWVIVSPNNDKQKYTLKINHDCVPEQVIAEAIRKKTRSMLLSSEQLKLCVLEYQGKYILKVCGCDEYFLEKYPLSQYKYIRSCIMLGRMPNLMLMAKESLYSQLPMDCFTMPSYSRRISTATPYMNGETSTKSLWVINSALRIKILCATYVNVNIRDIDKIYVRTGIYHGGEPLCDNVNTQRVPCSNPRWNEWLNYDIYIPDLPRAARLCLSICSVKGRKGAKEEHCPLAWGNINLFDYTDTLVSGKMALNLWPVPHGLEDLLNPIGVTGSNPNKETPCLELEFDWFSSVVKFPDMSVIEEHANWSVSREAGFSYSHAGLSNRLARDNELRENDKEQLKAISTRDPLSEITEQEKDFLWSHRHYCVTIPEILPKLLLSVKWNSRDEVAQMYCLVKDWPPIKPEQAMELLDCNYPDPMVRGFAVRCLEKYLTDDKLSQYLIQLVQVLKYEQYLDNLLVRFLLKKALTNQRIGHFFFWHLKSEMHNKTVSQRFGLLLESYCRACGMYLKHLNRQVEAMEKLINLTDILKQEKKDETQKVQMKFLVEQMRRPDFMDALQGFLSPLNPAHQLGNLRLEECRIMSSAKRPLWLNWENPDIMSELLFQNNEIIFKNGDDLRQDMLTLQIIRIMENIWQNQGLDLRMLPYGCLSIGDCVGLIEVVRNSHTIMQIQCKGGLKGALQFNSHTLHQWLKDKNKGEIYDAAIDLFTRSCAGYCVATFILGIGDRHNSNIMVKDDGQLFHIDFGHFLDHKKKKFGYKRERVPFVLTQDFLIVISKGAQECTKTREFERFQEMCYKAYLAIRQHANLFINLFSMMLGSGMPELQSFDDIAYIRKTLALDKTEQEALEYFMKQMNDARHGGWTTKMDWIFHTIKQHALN
T1 sequence (P27986 whole entry partner): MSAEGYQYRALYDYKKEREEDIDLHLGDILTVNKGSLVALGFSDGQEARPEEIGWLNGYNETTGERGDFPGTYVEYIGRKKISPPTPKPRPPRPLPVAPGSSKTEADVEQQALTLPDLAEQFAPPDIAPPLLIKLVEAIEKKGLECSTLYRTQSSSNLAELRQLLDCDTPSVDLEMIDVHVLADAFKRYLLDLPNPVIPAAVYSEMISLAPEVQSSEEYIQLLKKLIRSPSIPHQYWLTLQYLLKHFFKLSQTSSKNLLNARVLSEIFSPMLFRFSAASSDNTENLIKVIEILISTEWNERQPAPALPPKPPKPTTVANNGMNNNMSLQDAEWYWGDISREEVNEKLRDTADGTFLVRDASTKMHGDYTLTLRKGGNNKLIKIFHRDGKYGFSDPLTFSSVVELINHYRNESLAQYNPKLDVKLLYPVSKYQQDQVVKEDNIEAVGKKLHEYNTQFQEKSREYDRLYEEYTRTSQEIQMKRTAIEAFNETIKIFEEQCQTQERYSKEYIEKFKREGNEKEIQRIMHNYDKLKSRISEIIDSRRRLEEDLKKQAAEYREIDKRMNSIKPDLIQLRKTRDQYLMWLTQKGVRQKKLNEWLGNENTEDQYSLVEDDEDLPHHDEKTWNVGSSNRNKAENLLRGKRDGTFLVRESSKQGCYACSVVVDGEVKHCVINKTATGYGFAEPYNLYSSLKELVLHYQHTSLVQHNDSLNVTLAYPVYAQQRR
Outline: (§1)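 Full-length His-p110α/p85α complex, wild-type or H1047R, 1–5 nM, preincubated with compound 1 h at 27 °C in HEPES pH 7.4, 25 mM MgCl2, 0.01% Triton X-100, 1% DMSO. Reaction with 20 μM ATP and 50 μM PIP2diC8 or soy PI at 27 °C to ~10% ATP conversion; ADP-Glo luminescence. IC50 from 10-point four-parameter logistic fit.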

[3] = molecular target: T2, human full length PIK3KA Wild-type (p110α/p85α complex) (Homo sapiens, UniProt P42336); experiment: PI3K-alpha kinase (PIK3CA) biochemical activity, wild-type, ADP-Glo; conditions: PI3K-α (PIK3CA) biochemical, Soy PI lipid substrate
T2 construct: Recombinant, catalytically active human full length PIK3KA Wild-type and H1047R mutant were purchased as 1:1 complex; 6xHis (N); purchased EMD Millipore Sigma 14-602M
Outline: as §1

| Structure (SMILES) | IC50 [1] [nM] | IC50 [2] [nM] | IC50 [3] [nM] | IC50 ([1]; Homo sapiens, MDA-MB-453, 3 h) [nM] |
| --- | --- | --- | --- | --- |
| Cc1cc(C(C)Nc2cccc(F)c2C(=O)O)c2oc(-c3ccccc3F)cc(=O)c2c1 (single isomer, unassigned; isomer 2) [Example 108, 2-Fluoro-6-[1-[2-(2-fluorophenyl)-6-methyl-4-oxo-chromen-8-yl]ethylamino]benzoic acid, Isomer 2] |  | 5000 to 10000 | > 10000 | > 500 |
| Cc1cc(C(C)Nc2ccccc2C(=O)O)c2oc(-c3ccccc3)c(F)c(=O)c2c1 (single isomer, unassigned; isomer 2) [Example 133, 2-[1-(3-Fluoro-6-methyl-4-oxo-2-phenyl-chromen-8-yl)ethylamino]benzoic acid, Isomer 2] | 50 to 100 | < 500 | 1000 to 5000 |  |
| Cc1cc([C@@H](C)Nc2ccc(Cl)nc2C(=O)O)c2oc(-c3ccccc3)c(C)c(=O)c2c1 [Example 1, 6-Chloro-3-[[(1R)-1-(3,6-dimethyl-4-oxo-2-phenyl-chromen-8-yl)ethyl]amino]pyridine-2-carboxylic acid] |  | < 500 | 500 to 1000 | < 50 |
| Cc1cc([C@@H](C)Nc2ccccc2C(=O)O)c2oc(-c3ccccc3C)cc(=O)c2c1 [Example 14, 2-[[(1R)-1-[6-Methyl-2-(o-tolyl)-4-oxo-chromen-8-yl]ethyl]amino]benzoic acid] |  | < 500 | > 10000 | < 50 |
| Cc1cc([C@@H](C)Nc2ccccc2C(=O)O)c2oc(-c3ccccc3C#N)cc(=O)c2c1 [Example 15, 2-[[(1R)-1-[2-(2-Cyanophenyl)-6-methyl-4-oxo-chromen-8-yl]ethyl]amino]benzoic acid] |  | < 500 | 5000 to 10000 | < 50 |
| Cc1cc([C@@H](C)Nc2ccccc2C(=O)O)c2oc(-c3ccccc3)c(C)c(=O)c2c1 [Example 21, 2-[[(1R)-1-(3,6-Dimethyl-4-oxo-2-phenyl-chromen-8-yl)ethyl]amino]benzoic acid] |  | < 500 | 1000 to 5000 | < 50 |
| Cc1cc([C@@H](C)Nc2ccccc2C(=O)O)c2oc(-c3ccc(F)cc3)c(C)c(=O)c2c1 [Example 29, 2-[[(1R)-1-[2-(4-Fluorophenyl)-3,6-dimethyl-4-oxo-chromen-8-yl]ethyl]amino]benzoic acid] |  | < 500 | 500 to 1000 | < 50 |
| Cc1cc([C@@H](C)Nc2ccccc2C(=O)O)c2oc(-c3ccc(-c4ncco4)cc3)cc(=O)c2c1 [Example 32, 2-[[(1R)-1-[6-Methyl-2-(4-oxazol-2-ylphenyl)-4-oxo-chromen-8-yl]ethyl]amino]benzoic acid] |  | < 500 | 5000 to 10000 | < 50 |
| Cc1cc([C@@H](C)Nc2cccnc2C(=O)O)c2oc(-c3ccccc3)c(C)c(=O)c2c1 [Example 36, 3-[[(1R)-1-(3,6-Dimethyl-4-oxo-2-phenyl-chromen-8-yl)ethyl]amino]-pyridine-2-carboxylic acid] |  | 500 to 1000 | 5000 to 10000 | 50 to 100 |

The remaining lines, values ahead:

| IC50 [1] [nM] | IC50 [2] [nM] | IC50 [3] [nM] | IC50 ([1]; Homo sapiens, MDA-MB-453, 3 h) [nM] | Structure (SMILES) |
| --- | --- | --- | --- | --- |
| > 500 | 1000 to 5000 | 1000 to 5000 |  | Cc1cc(C(C)Nc2cccc(F)c2C(=O)O)c2oc(-c3cccc(F)c3)c(C)c(=O)c2c1 (single isomer, unassigned; isomer 2) [Example 106, 2-Fluoro-6-[1-[2-(3-fluorophenyl)-3,6-dimethyl-4-oxo-chromen-8-yl]ethylamino]benzoic acid, Isomer 2] |
| > 500 | 1000 to 5000 | 1000 to 5000 |  | COc1ccc(NC(C)c2cc(C)cc3c(=O)c(C)c(-c4ccccc4)oc23)c(C(=O)O)n1 (single isomer, unassigned; isomer 2) [Example 110, 3-[1-(3,6-Dimethyl-4-oxo-2-phenyl-chromen-8-yl)ethylamino]-6-methoxy-pyridine-2-carboxylic acid, Isomer 2] |
| < 50 | < 500 | 1000 to 5000 |  | Cc1cc([C@@H](C)Nc2ccc(C#N)cc2C(=O)O)c2oc(-c3ccccc3)c(C)c(=O)c2c1 (single isomer, unassigned; isomer 2) [Example 158] |
| 100 to 500 | < 500 | 1000 to 5000 |  | Cc1cc([C@@H](C)Nc2ccc(C#N)nc2C(=O)O)c2oc(-c3ccccc3)c(C)c(=O)c2c1 (single isomer, unassigned; isomer 2) [Example 160] |
|  | < 500 | 1000 to 5000 | 50 to 100 | Cc1cc([C@@H](C)Nc2ccccc2C(=O)O)c2oc(-c3ccc(C(C)(C)C#N)cc3)cc(=O)c2c1 [Example 25] |
|  | < 500 | 500 to 1000 | 50 to 100 | Cc1cc([C@@H](C)Nc2ccc(C(F)(F)F)nc2C(=O)O)c2oc(-c3ccccc3)c(C)c(=O)c2c1 [Example 26, 3-[[(1R)-1-(3,6-Dimethyl-4-oxo-2-phenyl-chromen-8-yl)ethyl]amino]-6-(trifluoromethyl)-pyridine-2-carboxylic acid] |
|  | < 500 | 1000 to 5000 | < 50 | Cc1cc([C@@H](C)Nc2ccccc2C(=O)O)c2oc(-c3cccc(F)c3)c(C)c(=O)c2c1 [Example 28, 2-[[(1R)-1-[2-(3-Fluorophenyl)-3,6-dimethyl-4-oxo-chromen-8-yl]ethyl]amino]benzoic acid] |
|  | < 500 | 500 to 1000 | < 50 | Cc1cc([C@@H](C)Nc2ccccc2C(=O)O)c2oc(-c3cccc(C#N)c3)c(C)c(=O)c2c1 [Example 30, 2-[[(1R)-1-[2-(3-Cyanophenyl)-3,6-dimethyl-4-oxo-chromen-8-yl]ethyl]amino]benzoic acid] |
|  | < 500 | 1000 to 5000 | < 50 | Cc1cc([C@@H](C)Nc2ccccc2C(=O)O)c2oc(-c3ccc(C#N)cc3)c(C)c(=O)c2c1 [Example 31, 2-[[(1R)-1-[2-(4-Cyanophenyl)-3,6-dimethyl-4-oxo-chromen-8-yl]ethyl]amino]benzoic acid] |
|  | < 500 | 5000 to 10000 | 100 to 500 | Cc1cc([C@@H](C)Nc2ccc(C(F)(F)F)cc2C(=O)O)c2oc(-c3ccccc3)cc(=O)c2c1 [Example 33, 2-[[(1R)-1-(6-Methyl-4-oxo-2-phenyl-chromen-8-yl)ethyl]amino]-5-(trifluoromethyl)benzoic acid] |
|  | < 500 | 1000 to 5000 | < 50 | Cc1cc([C@@H](C)Nc2ccc(Br)nc2C(=O)O)c2oc(-c3ccccc3)c(C)c(=O)c2c1 [Example 35, 6-Bromo-3-[[(1R)-1-(3,6-dimethyl-4-oxo-2-phenyl-chromen-8-yl)ethyl]amino]-pyridine-2-carboxylic acid] |
